Measured values reported in patent US7550277B2, “D-amino acid dehydrogenase and method of making D-amino acids” (Codexis, Inc., priority 2005, dated 2009).

Columns and labels:
[1] = spontaneous racemization of the hydantoin at a pH above 8; depends on substituent at the 5-position; cited from earlier work
[2] = Activity of DAPDH enzymes for reductive amination of 2-keto acids (NADPH decrease at 340 nm); assay type: biochemical
Description: The mutant DAPDH enzyme was assayed spectrophotometrically by monitoring the decrease in concentration of NADPH. The typical reductive amination reaction contained the following: 100 mM sodium carbonate/bicarbonate buffer, pH 9.0, 200 mM NH4Cl, 25 mM 2-keto acid, and 0.2 mM NADPH. The decrease in absorbance at 340 nm was monitored and an NADPH extinction coefficient of 6.22 mM^−1cm^−1 was used to correlate absorbance to concentration. Protein concentrations were determined via the Bradford method ^19 using bovine serum albumin as a protein standard.

Molecule | rate of racemization τ1/2 [1] [h] | activity toward the reductive amination of 2-ketoacids to produce D-amino acids [2]
tert-butylhydantoin | 120 | –
CC(C)C1NC(=O)NC1=O (centres unmarked) [isopropylhydantoin] | 56 | –
O=C1NC(=O)C(Cc2ccccc2)N1 (centres unmarked) [benzylhydantoin] | 5 | –
O=C1NC(=O)C(c2ccccc2)N1 (centres unmarked) [phenylhydantoin] | 0.3 | –
wild-type diaminopimelate dehydrogenase enzyme from Corynebacterium glutamicum: wild-type diaminopimelate dehydrogenase from Corynebacterium glutamicum (ATTC #13032), SEQ ID NO. 2 (protein, listed as Corynebacterium glutamicum) MTNIRVAIVGYGNLGRSVEKLIAKQPDMDLVGIFSRRATLDTKTPVFDVADVDKHADDVDVLFLCMGSATDIPEQAPKFAQFACTVDTYDNHRDIPRHRQVMNEAATAAGNVALVSTGWDPGMFSINRVYAAAVLAEHQQHTFWGPGLSQGHSDALRRIPGVQKAVQYTLPSEDALEKARRGEAGDLTGKQTHKRQCFVVADAADHERIENDIRTMPDYFVGYEVEVNFIDEATFDSEHTGMPHGGHVITTGDTGGFNHTVEYILKLDRNPDFTASSQIAFGRAAHRMKQQGQSGAFTVLEVAPYLLSPENLDDLIARDV | – | little or no activity
